Measured values: PubChem BioAssay AID687022 (Broad Institute, 2013)
Calls of active or inactive are those of the source.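 Rule for the calls: active = Fitted curve of melting temperature shift crosses the 1.0 threshold at or below the sample's highest valid tested concentration; inconclusive = Flat fit with activity 30 to 70, or invalid fit; inactive = Opposite direction, flat within 30, or no crossing.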

Target: Fibroblast growth factor 22 (Homo sapiens) (UniProt Q9HCT0)
Assay: FGF22 ligand-induced thermal stabilization – biophysical, thermal shift, cherry-pick, FGF22 synaptogenesis inhibitor project, dose response (AID 687022)
Conditions: recombinant FGF22 thermal shift, SYPRO orange melting

Sequence of Fibroblast growth factor 22 (Homo sapiens) (Q9HCT0 whole entry, looked up): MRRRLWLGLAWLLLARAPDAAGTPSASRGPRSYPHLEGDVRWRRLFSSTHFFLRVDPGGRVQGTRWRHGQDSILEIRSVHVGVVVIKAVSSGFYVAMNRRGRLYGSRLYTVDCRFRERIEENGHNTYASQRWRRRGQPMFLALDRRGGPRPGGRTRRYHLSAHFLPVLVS

| Compound | AbsAC1 (concentration giving Tm-shift threshold 1.0) |
| --- | --- |
| O=C(CNS(=O)(=O)c1ccccc1)OCC(=O)c1c[nH]c2ccccc12 | 9.88 µM |
| O=C(N/N=C/c1ccc[nH]1)c1cc2ccccc2cc1O | 3.23 µM |
| Cc1ccc(-c2n[nH]c(=S)n2/N=C/c2c(C)[nH]n(-c3ccccc3)c2=O)cc1 | 4.65 µM |
| Cc1[nH]c2ccc(C(=O)OCC(=O)Nc3cccc(S(N)(=O)=O)c3)cc2c1C | 2.86 µM |
| C[C@@H]1CN([C@H](C)CO)C(=O)c2cc(NC(=O)Nc3ccc(C(F)(F)F)cc3)ccc2O[C@@H]1CN(C)Cc1ccc(C(=O)O)cc1 | 11.5 µM |
| COc1cc(NC(=O)C2CCC(CNS(=O)(=O)c3csc(C(N)=O)c3)CC2)cc(OC)c1 (stereo not given) | 5.8 µM |
| Cc1cc(NC(=O)Nc2ccc3c(ccn3C)c2)sn1 | 3.42 µM |
| CCN(CC)c1ccc2cc(S(=O)(=O)c3ccc(Cl)cc3)c(=O)oc2c1 | 5.6 µM |
| O=C(CN1C(=O)NC2(CCOc3ccccc32)C1=O)Nc1ccc(Br)cc1F (stereo not given) | 16.6 µM |
| NS(=O)(=O)c1cccc(NC(=O)COC(=O)c2cc([N+](=O)[O-])ccc2N2CCCC2)c1 | 5.86 µM |
| CNC(=S)N(Cc1ccc(OC)cc1)C1CC(=O)N(c2ccc(C(=O)OC)cc2)C1=O (stereo not given) | 3.43 µM |
| CCN(CC)S(=O)(=O)c1ccc(N/N=C(\C)c2ccc(OC)cc2O)nc1 | 14 µM |
| Nc1ccc(C(=O)Nc2ccc(OC(F)(F)C(F)F)c(NC(=O)c3ccc(N)cc3)c2)cc1 | 6.85 µM |
| COc1ccc(NC(=O)N[C@H]2CC[C@@H](CCn3cc(-c4ccc(OC)cc4)nn3)O[C@@H]2CO)cc1 | > 42 µM (inactive) |
| O=C(N/N=C/c1ccc([N+](=O)[O-])cc1)c1c[nH]c2ccccc12 | 20 µM |
| Cc1ccc(NC(=O)c2sc3ncn(CC(=O)N4CCN(c5ccccn5)CC4)c(=O)c3c2C)cc1F | 10.6 µM |
| C[C@H]1CN([C@@H](C)CO)S(=O)(=O)c2ccc(-c3cccc(F)c3)cc2O[C@H]1CN(C)C(=O)Nc1cc(F)ccc1F | 6.67 µM |
| COc1ccc(Nc2nc3ccc(OC)cc3s2)cc1 | 2.95 µM |
| C[C@H](CO)N1C[C@H](C)[C@H](CN(C)C(=O)Nc2ccc(C(F)(F)F)cc2)Oc2cc(-c3ccncc3)ccc2S1(=O)=O | 10.3 µM |
| CO[C@@H](CN(C)S(=O)(=O)c1cccc(Cl)c1)[C@@H](C)CN([C@@H](C)CO)S(=O)(=O)c1cccc(Cl)c1 | 5.29 µM |

| Compound | AbsAC1 (concentration giving Tm-shift threshold 1.0) |
| --- | --- |
| O=C(Nc1cc(Cl)cc(Cl)c1)N[C@H]1CC[C@H](CCNS(=O)(=O)c2cccc(F)c2)O[C@@H]1CO | 11 µM |
| C[C@@H]1CN([C@@H](C)CO)C(=O)Cc2cc(NC(=O)C3CC3)ccc2O[C@H]1CN(C)Cc1ccc(Cl)c(Cl)c1 | 16.7 µM |
| COC(=O)c1cc(OC)c(OC)cc1NC(=O)c1ccccc1C | 16.7 µM |
| O=[N+]([O-])c1ccc2nc(NS(=O)(=O)c3ccccc3[N+](=O)[O-])sc2c1 | 6.33 µM |
| Brc1ccccc1/C=N/Nc1ccccn1 | 9.78 µM |
| CS(=O)(=O)c1ccc2nc(NC(=O)c3ccc(Cl)nc3)sc2c1 | 22.9 µM |
| O=C(Nc1ccc(C(=O)O)cc1)Nc1ccc([N+](=O)[O-])cc1 | 5.57 µM |
| CN1C(=O)c2cc(NC(=O)c3cccc(F)c3)ccc2OC[C@@H]2O[C@H](CC(=O)NCc3ccccc3)CC[C@@H]21 | 21 µM |
| CCN1C(=O)C(CC(=O)Nc2ccc(F)cc2)N(Cc2ccc3c(c2)OCO3)C1=S (stereo not given) | 2.83 µM |
| O=C(Nc1nccs1)C1CC(=O)N(c2ccc(F)cc2)C1 (stereo not given) | 8.93 µM |
| CCOC(=O)C(c1c(O)c2ccccc2oc1=O)c1c(O)c2ccccc2oc1=O | > 5 µM (inactive) |
| O=C(Nc1ccc(F)cc1)N[C@H]1CC[C@@H](CCn2cc(-c3ccccc3F)nn2)O[C@H]1CO | 10.5 µM |
| CCc1nnc(NS(=O)(=O)c2ccc(Nc3ccc([N+](=O)[O-])c4nonc34)cc2)s1 | > 5 µM (inactive) |
| C/C(=N\NC(=O)c1nnn(-c2nonc2N)c1CSc1ccc(C)cc1)c1cccnc1 | 37.4 µM |
| CC(=O)c1c(C)nc(-c2ccc(OCC(=O)Nc3ccc(F)cc3)cc2)n1O | 16.3 µM |
| O=C(Nc1cc(Cl)cc(Cl)c1)N[C@@H]1CC[C@@H](CCNS(=O)(=O)c2cccc(F)c2)O[C@H]1CO | 5.67 µM |
| O=C(CCNC(=O)c1ccccc1Cl)Nc1nc2ccc(F)cc2s1 | 9.92 µM |
| COc1ccccc1NC(=O)c1ccc(NC(=O)c2ccc(=O)[nH]c2)cc1 | 4.02 µM |
| O=S(=O)(Nc1nnc(C(F)(F)F)s1)c1ccc(Cl)cc1 | 3.42 µM |
| CC(C)(C)S(=O)(=O)/C(C#N)=N/Nc1ccc(Cl)cc1 | 25.7 µM |
